A short description of series [1]: Permeability by PAMPA method. In kind it is ADME. The settings on record: read-out: permeability. Background: The PAMPA barrier holds no transporters, so it reflects passive diffusion.
For series [2], the target named is T1, Bile acid receptor (Homo sapiens, UniProt Q96RI1).
T1 sequence (Q96RI1 whole entry): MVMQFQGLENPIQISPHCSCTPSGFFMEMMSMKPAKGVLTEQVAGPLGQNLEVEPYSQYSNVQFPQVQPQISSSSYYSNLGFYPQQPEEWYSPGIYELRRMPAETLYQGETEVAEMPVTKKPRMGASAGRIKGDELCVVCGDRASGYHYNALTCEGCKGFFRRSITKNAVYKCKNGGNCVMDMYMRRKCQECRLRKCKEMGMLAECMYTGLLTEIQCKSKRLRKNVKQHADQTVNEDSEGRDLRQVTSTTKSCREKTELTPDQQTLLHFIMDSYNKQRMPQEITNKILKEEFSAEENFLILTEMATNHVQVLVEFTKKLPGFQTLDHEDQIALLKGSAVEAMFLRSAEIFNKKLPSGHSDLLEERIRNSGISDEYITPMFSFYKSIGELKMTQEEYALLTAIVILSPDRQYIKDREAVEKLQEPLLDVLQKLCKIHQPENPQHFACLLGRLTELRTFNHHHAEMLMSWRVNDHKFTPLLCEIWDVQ

For series [3], the target named is T2, Bile acid receptor (Homo sapiens) (UniProt Q96RI1).
T2 sequence (whole entry): T1 sequence (Q96RI1 whole entry)
Put plainly: Agonist activity at chimeric FXR assessed as receptor transactivation by luciferase transcriptional reporter gene assay relative to GW-4064. In kind it is functional. Set-up: concentration or dose not given beside the values. For orientation: In a reporter assay the amount or activity of a reporter protein is the signal.

The target in series [4] is T1, Bile acid receptor. Put plainly: Displacement of radioligand from human FXR by scintillation proximity assay. A general note: In a scintillation proximity assay essentially only radioactivity close to the scintillant gives light.
For series [5], the target named is T3, Bile acid receptor (Mus musculus) (UniProt Q60641).
T3 sequence (whole entry): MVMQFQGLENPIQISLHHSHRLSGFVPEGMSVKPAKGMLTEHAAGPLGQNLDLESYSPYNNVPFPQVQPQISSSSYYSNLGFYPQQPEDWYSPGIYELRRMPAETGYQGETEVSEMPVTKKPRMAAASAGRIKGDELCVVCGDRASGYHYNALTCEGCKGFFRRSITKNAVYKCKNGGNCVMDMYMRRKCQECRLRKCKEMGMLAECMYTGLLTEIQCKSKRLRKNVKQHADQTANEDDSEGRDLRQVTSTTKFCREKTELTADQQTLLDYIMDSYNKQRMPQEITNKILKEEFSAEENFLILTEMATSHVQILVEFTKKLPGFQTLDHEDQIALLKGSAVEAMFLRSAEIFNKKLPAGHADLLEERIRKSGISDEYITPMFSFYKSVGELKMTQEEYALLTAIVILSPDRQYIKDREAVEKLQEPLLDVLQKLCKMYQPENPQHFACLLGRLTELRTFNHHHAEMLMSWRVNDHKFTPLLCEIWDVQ
Put plainly: Agonist activity at mouse chimeric FXR assessed as receptor transactivation by luciferase transcriptional reporter gene assay relative to GW-4064. It is filed as functional. Set-up: concentration or dose not given beside the values.

Series [6] addresses T4, Bile acid receptor (Mus musculus, UniProt Q60641).
T4 sequence (Q60641 whole entry): T3 sequence (whole entry)
Nature of the series: Agonist activity at mouse chimeric FXR assessed as receptor transactivation by luciferase transcriptional reporter gene assay. In kind it is functional.

Results on twelve molecules are retold here after ChEMBL document CHEMBL1138594, “Identification of an N-oxide pyridine GW4064 analog as a potent FXR agonist” (Bioorg Med Chem Lett, 2009).

Usually EC50 stands for the concentration needed to bring the measured effect to its halfway point. Usually IC50 stands for the point on the concentration scale where inhibition reaches its midpoint.

Consider `Cc1cc(OCc2c(-c3c(Cl)c[n+]([O-])cc3Cl)noc2C(C)C)ccc1-c1ccc2c(C(=O)O)cn(C)c2c1`, for which the Papp in series [1] worked out at 587 ×10⁻⁶ cm/s. In addition, the EC50 at Bile acid receptor [2] was found to be 0.102 µM; at Bile acid receptor [6], 0.2 µM. Further, the values for the Activity in series [3] and in series [5] were 53.7% and 88.5%, respectively. The same molecule had an IC50 on Bile acid receptor [4] of 0.045 µM.

On to `Cc1cc(OCc2c(-c3c(Cl)ccc(=O)n3C)noc2C(C)C)ccc1-c1ccc2c(C(=O)O)cn(C)c2c1`, for which the EC50 at Bile acid receptor [2] and at Bile acid receptor [6] was 4 µM throughout. The figures for the Activity in series [3] and in series [5] were 27% and 39%, respectively. The molecule further registered a half-maximal inhibitory concentration (IC50) at Bile acid receptor [4] of 0.235 µM.

Consider `Cc1cc(OCc2c(-c3cc[nH]c(=O)c3Cl)noc2C(C)C)ccc1-c1ccc2c(C(=O)O)cn(C)c2c1`, for which the EC50 came to 5 µM at Bile acid receptor [2] and 7 µM at Bile acid receptor [6]. Also, the Activity in series [3] amounted to 58.5%; in series [5] it was 63.3%. Besides, the IC50 at Bile acid receptor [4] worked out at 1.1 µM.

In the case of `COc1ccccc1-c1noc(C(C)C)c1COc1ccc(/C=C/c2cccc(C(=O)O)c2)c(Cl)c1`, the EC50 at Bile acid receptor [2] and at Bile acid receptor [6] was 10 µM each time. Also, the Activity in series [3] is 54.3%; in series [5], 19.8%. This molecule also had an IC50 at Bile acid receptor [4] of 0.25 µM.

Regarding `Cc1cc(OCc2c(-c3[nH]c(=O)ccc3Cl)noc2C(C)C)ccc1-c1ccc2c(C(=O)O)cn(C)c2c1`, the Activity came out at 0% in series [3] and 8% in series [5]. In addition, the IC50 on Bile acid receptor [4] turned out to be 4.13 µM. Besides, the EC50 at Bile acid receptor [6] came to 18 µM.

Regarding `COc1ccc(Cl)c(-c2noc(C(C)C)c2COc2ccc(-c3ccc4c(C(=O)O)cn(C)c4c3)c(C)c2)n1`, the Papp in series [1] amounted to 0.7 ×10⁻⁶ cm/s. Moreover, the EC50 at Bile acid receptor [2] and on Bile acid receptor [6] was 2 µM in each case. Also, the Activity is 23% in series [3] and 12% in series [5]. Further, on Bile acid receptor [4], the IC50 came to 0.31 µM.

Regarding `Cc1cc(OCc2c(-c3c(Cl)cn(C)c(=O)c3Cl)noc2C(C)C)ccc1-c1ccc2c(C(=O)O)cn(C)c2c1`, the EC50 on Bile acid receptor [2] worked out at 12 µM; on Bile acid receptor [6] it was 11 µM. The figures for the Activity in series [3] and in series [5] were 9% and 15%, respectively. At Bile acid receptor [4], the IC50 stood at 2.75 µM.

As to `CC(C)c1onc(-c2c(Cl)cccc2Cl)c1COc1ccc(/C=C/c2cccc(C(=O)O)c2)c(Cl)c1`, in series [3], the Activity stood at 100%. Besides, the EC50 on Bile acid receptor [6] is 2 µM.

As to `Cc1cc(OCc2c(-c3c(Cl)cncc3Cl)noc2C(C)C)ccc1-c1ccc2c(C(=O)O)cn(C)c2c1`, in series [1], the Papp was determined as 0.19 ×10⁻⁶ cm/s. The EC50 on Bile acid receptor [2] was 0.9 µM; at Bile acid receptor [6], 3 µM. Besides, the figures for the Activity in series [3] and in series [5] were 38% and 71%, respectively.

`Cc1cc(OCc2c(-c3ccn(C)c(=O)c3Cl)noc2C(C)C)ccc1-c1ccc2c(C(=O)O)cn(C)c2c1`: the EC50 at Bile acid receptor [2] was 7 µM; on Bile acid receptor [6] it was 6 µM. The Activity in series [3] worked out at 12%; in series [5], 17%. The IC50 at Bile acid receptor [4] was 1.72 µM.

Turning to `CC(C)c1onc(-c2c(Cl)cncc2Cl)c1COc1ccc(/C=C/c2cccc(C(=O)O)c2)c(Cl)c1`, the Papp in series [1] is 0.09 ×10⁻⁶ cm/s. Further, the EC50 on Bile acid receptor [2] came out at 9 µM; at Bile acid receptor [6] it was 11 µM. Besides, the Activity came to 59.4% in series [3] and 48% in series [5]. This molecule also had an IC50 on Bile acid receptor [4] of 0.69 µM.

Regarding `CC(C)c1onc(-c2ccc(S(C)(=O)=O)cc2Cl)c1COc1ccc(/C=C/c2cccc(C(=O)O)c2)c(Cl)c1`, the EC50 on Bile acid receptor [2] and on Bile acid receptor [6] was above 10 µM each time. The Activity in series [3] and in series [5] was 0% each time. The IC50 at Bile acid receptor [4] was 0.17 µM.
